Converted amounts (≈) assume the structure as drawn.

The test system of data set [1] is Staphylococcus aureus. The data set can be described thus: Compound was tested in vivo for its anti-methicillin-resistant staphylococcus aureus(MRSA). The data set is classed as functional.
Data set [2] concerns Rattus norvegicus. The data set can be described thus: Epileptogenicity of compound was measured at 100 ug/rat head by the rat intraventricular assay; 3/5. It is filed as functional.
The subject of another data set is Enterococcus faecalis. Description: In vitro antibacterial activity against Enterococcus faecalis MB4996 organism. The data set is classed as functional.
For the next data set, the species on record is Mus musculus. The data set can be described thus: Compound was measured for binding rate for mouse serum at a carbapenem concentration of 10 ug/mL. The data set is classed as functional.
For data set [3], the system named is Staphylococcus aureus. Description: In vitro antibacterial activity against staphylococcus aureus CSa1009 (Methicillin-resistant strain and b beta-Lactamase producing strain). The data set is classed as functional.
Data set [4] has as its system Staphylococcus aureus. The data set can be described thus: In vitro antibacterial activity against staphylococcus aureus BB6294 organism (Methicillin-resistant strain). It is filed as functional.
For data set [5], the target named is T1, Dipeptidase 1 (Sus scrofa) (UniProt P22412).
T1 sequence (whole entry): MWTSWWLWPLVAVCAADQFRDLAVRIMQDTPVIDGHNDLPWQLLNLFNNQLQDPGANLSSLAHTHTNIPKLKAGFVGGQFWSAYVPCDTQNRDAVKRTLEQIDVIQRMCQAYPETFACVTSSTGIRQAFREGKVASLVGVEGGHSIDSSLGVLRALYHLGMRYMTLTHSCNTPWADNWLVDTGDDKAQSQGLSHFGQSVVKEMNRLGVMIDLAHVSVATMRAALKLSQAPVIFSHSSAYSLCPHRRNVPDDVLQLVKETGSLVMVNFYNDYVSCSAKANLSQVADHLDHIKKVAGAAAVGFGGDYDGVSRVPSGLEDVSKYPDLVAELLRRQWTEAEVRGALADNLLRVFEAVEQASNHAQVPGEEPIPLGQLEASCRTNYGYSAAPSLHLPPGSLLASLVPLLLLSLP
Description: Compound was measured for DHP-I susceptibility. It is filed as functional.

Data set [6] addresses T1, Dipeptidase 1 (Sus scrofa). Description: Relative rate of hydrolysis of porcine renal dehydropeptidase-I (DHP-I) to imipenem. The data set is classed as functional.
In the next data set the test system is Escherichia coli. Description: In vitro antibacterial activity against Escherichia coli NIHJ JC2 organism. It is filed as functional.
In data set [7] the test system is Staphylococcus aureus. The data set can be described thus: Compound was tested in vitro for its anti-methicillin-resistant staphylococcus aureus(MRSA); 3.13-12.5. It is filed as functional.
Data set [8] relates to Staphylococcus aureus. The data set can be described thus: In vitro antibacterial activity against staphylococcus aureus 209P NIHJ JC1 organism. The data set is classed as functional.
For data set [9], the system named is Staphylococcus epidermidis. The data set can be described thus: In vitro antibacterial activity against Staphylococcus epidermidis MB5181a organism. It is filed as functional. As to conditions: Staphylococcus epidermidis; read-out: MIC.
Data set [10] is described as follows: Compound was measured for binding rate for human serum at a carbapenem concentration of 10 ug/mL. The note with it: read-out: Protein binding (converted). The data set is classed as ADME.
For a further data set, the system named is Pseudomonas aeruginosa. The data set can be described thus: In vitro antibacterial activity against Pseudomonas aeruginosa MB5002 organism. The data set is classed as functional.
Data set [11] has as its system Staphylococcus aureus. The data set can be described thus: (§1) PBP-2'' affinity was determined by the competition assay with [14C]benzylpenicillin using membrane isolated from MRSA BB6294 strain. The data set is classed as functional.
A short description of data set [12]: as §1. It is filed as functional, Staphylococcus aureus.
For data set [13], the system named is Staphylococcus aureus. The data set can be described thus: Compound was tested in vitro for its anti-methicillin-resistant staphylococcus aureus(MRSA); 3.13-6.25. The data set is classed as functional.
For data set [14], the system named is Rattus norvegicus. The data set can be described thus: Epileptogenicity of compound was measured at 100 ug/rat head by the rat intraventricular assay; 0/5. The data set is classed as functional, Cerebral ventricle.
The test system of data set [15] is Rattus norvegicus. Description: Epileptogenicity of compound was measured at 100 ug/rat head by the rat intraventricular assay; 1/5. The data set is classed as functional.
Data set [16] has as its system Staphylococcus aureus. Description: Compound was tested in vitro for its anti-methicillin-resistant staphylococcus aureus(MRSA); 0.78-3.13. It is filed as functional.

As a reminder, the ED50 is the dose at which the effect has come halfway, by size or by number of responders. Lower therefore signals greater potency. One may read the MIC as the least concentration at which growth counts as inhibited. In the data set with Staphylococcus aureus [1], `C[C@@H](O)[C@H]1C(=O)N2C(C(=O)[O-])=C(SC(=S)N3CC[N+](C)(Cc4ccccc4)CC3)[C@H](C)[C@H]12` came in with an ED50 of 10 mg/kg. The Epileptogenicity with Rattus norvegicus [2] was 3. For the same compound, the MIC in the data set on Enterococcus faecalis is 1.56 mg/L (≈ 3.28 µM); with Staphylococcus aureus [3], 6.25 mg/L (≈ 13.1 µM); in the data set with Staphylococcus aureus [4] it was 3.13 mg/L (≈ 6.58 µM); in the data set with Escherichia coli, 1.56 mg/L (≈ 3.28 µM); against Staphylococcus aureus [7], 5.36 mg/L (≈ 11.3 µM); against Staphylococcus aureus [8], less than 0.006 mg/L. For the same compound, the MIC is 1.56 mg/L (≈ 3.28 µM) in data set [9] and greater than 25 mg/L with Pseudomonas aeruginosa. In the data set listed under Mus musculus, this compound came in with a PPB of 82%. The DHP-I susceptibility in data set [5] and in data set [6] was 0.15 in each case. In addition, the fraction unbound at 10 ug/mL in data set [10] is 0.4.
As usually defined, the IC50 is the concentration that gives 50% inhibition. Higher therefore signals lower potency. With `C[C@@H](O)[C@H]1C(=O)N2C(C(=O)O)=C(SCCNC=N)C[C@H]12` [IMIPENEM ANHYDROUS], the ED50 with Staphylococcus aureus [1] (Staphylococcus aureus) was greater than 200 mg/kg. In addition, the MIC in the data set on Enterococcus faecalis was 0.78 mg/L (≈ 2.61 µM); against Staphylococcus aureus [3], 100 mg/L (≈ 334 µM); with Staphylococcus aureus [4] it was 100 mg/L (≈ 334 µM); against Escherichia coli, 0.1 mg/L (≈ 0.334 µM); in the data set on Staphylococcus aureus [8], less than 0.006 mg/L; in [9], 100 mg/L (≈ 334 µM). Besides, the MIC against Pseudomonas aeruginosa was determined as 1.56 mg/L (≈ 5.21 µM). The DHP-I susceptibility in data set [6] was 1. Besides, the IC50 in the data set on Staphylococcus aureus [11] turned out to be 125 mg/L (≈ 418 µM).
Take `CN[C@H](CC(C)C)C(=O)N[C@H]1C(=O)N[C@@H](CC(N)=O)C(=O)N[C@H]2C(=O)N[C@H]3C(=O)N[C@H](C(=O)N[C@H](C(=O)O)c4cc(O)cc(O)c4-c4cc3ccc4O)[C@H](O)c3ccc(c(Cl)c3)Oc3cc2cc(c3O[C@@H]2O[C@H](CO)[C@@H](O)[C@H](O)[C@H]2O[C@H]2C[C@](C)(N)[C@H](O)[C@H](C)O2)Oc2ccc(cc2Cl)[C@H]1O` [VANCOMYCIN]: the 50% effect level in the data set with Staphylococcus aureus [1] (Staphylococcus aureus) (ED50) was put at a dose of 5.56 mg/kg. Also, the MIC in the data set with Escherichia coli is greater than 25 mg/L; with Staphylococcus aureus [8], 0.39 mg/L (≈ 0.269 µM); against Pseudomonas aeruginosa it was greater than 25 mg/L.
The compound `C[C@@H](O)[C@H]1C(=O)N2C(C(=O)O)=C(SC(=S)N(C)CCO)[C@H](C)[C@H]12` had an ED50 in the data set with Staphylococcus aureus [1] of 4.8 mg/kg. Moreover, the MIC in the data set on Enterococcus faecalis was 6.25 mg/L (≈ 17.3 µM); against Staphylococcus aureus [3], 6.25 mg/L (≈ 17.3 µM); in the data set on Staphylococcus aureus [4] it was 3.13 mg/L (≈ 8.68 µM); in the data set on Escherichia coli, 0.78 mg/L (≈ 2.16 µM); in the data set with Staphylococcus aureus [13] it was 4.36 mg/L (≈ 12.1 µM); with Staphylococcus aureus [8], 0.025 mg/L (≈ 0.0694 µM). The minimum inhibitory concentration (MIC) is 6.25 mg/L (≈ 17.3 µM) in data set [9] and greater than 25 mg/L with Pseudomonas aeruginosa. In addition, the PPB in the data set filed under Mus musculus stood at 58%. Further, the DHP-I susceptibility amounted to 1.33 in data set [5] and 1.36 in data set [6]. Further, the IC50 in data set [12] was determined as 3.8 mg/L (≈ 10.5 µM). For the same compound, the Epileptogenicity in the data set on Rattus norvegicus [14] is on record as 0. The fraction unbound at 10 ug/mL in data set [10] is 0.53.
As for `C[C@@H](O)[C@H]1C(=O)N2C(C(=O)O)=C(SC(=S)N(C)C)[C@H](C)[C@H]12`, the ED50 in the data set on Staphylococcus aureus [1] was 5.91 mg/kg. Moreover, the MIC against Enterococcus faecalis came out at 12.5 mg/L (≈ 37.8 µM); with Staphylococcus aureus [3], 6.25 mg/L (≈ 18.9 µM); against Staphylococcus aureus [4], 3.13 mg/L (≈ 9.47 µM); in the data set on Escherichia coli, 6.25 mg/L (≈ 18.9 µM); in the data set on Staphylococcus aureus [13], 4.59 mg/L (≈ 13.9 µM); against Staphylococcus aureus [8] it was 0.012 mg/L (≈ 0.0363 µM). In addition, the MIC in [9] came out at 6.25 mg/L (≈ 18.9 µM); in the data set on Pseudomonas aeruginosa it was 25 mg/L (≈ 75.7 µM). Also, in the data set filed under Mus musculus, the PPB was determined as 69%. In addition, the DHP-I susceptibility in data set [5] and in data set [6] was 2.12 each time. Further, the IC50 in data set [12] stood at 9.6 mg/L (≈ 29.1 µM). The compound further gave an Epileptogenicity in the data set on Rattus norvegicus [14] of 0. Also, the fraction unbound at 10 ug/mL in data set [10] was 0.12.
Compound `C[C@@H](O)[C@H]1C(=O)N2C(C(=O)O)=C(SC(=S)N3CCCC3)[C@H](C)[C@H]12` gave an ED50 in the data set on Staphylococcus aureus [1] of 6.24 mg/kg. Also, the MIC against Enterococcus faecalis stood at 12.5 mg/L (≈ 35.1 µM); against Staphylococcus aureus [3], 6.25 mg/L (≈ 17.5 µM); against Staphylococcus aureus [4], 3.13 mg/L (≈ 8.78 µM); against Escherichia coli, 6.25 mg/L (≈ 17.5 µM); in the data set on Staphylococcus aureus [13] it was 4.04 mg/L (≈ 11.3 µM); against Staphylococcus aureus [8], 0.012 mg/L (≈ 0.0337 µM). Moreover, the MIC was 3.13 mg/L (≈ 8.78 µM) in data set [9] and greater than 25 mg/L with Pseudomonas aeruginosa. For the same compound, in the data set with Rattus norvegicus [15], the Epileptogenicity is given as 1. The compound also yielded a PPB in the data set listed under Mus musculus of 95%. Also, the DHP-I susceptibility in [5] and in data set [6] was 3.18 in each case. In data set [12], this compound gave an IC50 of 5.6 mg/L (≈ 15.7 µM). Also, the fraction unbound at 10 ug/mL in [10] was 0.06.
Take `C[C@@H](O)[C@H]1C(=O)N2C(C(=O)O)=C(SC(=S)N(C)Cc3cccc4ccccc34)[C@H](C)[C@H]12`: in the data set on Staphylococcus aureus [1], the ED50 was greater than 50 mg/kg. Moreover, the MIC was 1.56 mg/L (≈ 3.42 µM) against Enterococcus faecalis; 1.56 mg/L (≈ 3.42 µM) against Staphylococcus aureus [3]; 0.78 mg/L (≈ 1.71 µM) in the data set on Staphylococcus aureus [4]; 25 mg/L (≈ 54.8 µM) against Escherichia coli; 1.15 mg/L (≈ 2.52 µM) in the data set on Staphylococcus aureus [16]; less than 0.006 mg/L in the data set on Staphylococcus aureus [8]. The MIC in [9] is 0.39 mg/L (≈ 0.854 µM); in the data set on Pseudomonas aeruginosa, greater than 25 mg/L. The PPB in the data set filed under Mus musculus was 99%. Further, the DHP-I susceptibility in data set [5] and in [6] was 4.41 each time. For the same compound, the Epileptogenicity in the data set with Rattus norvegicus [14] is 0. Further, the fraction unbound at 10 ug/mL in data set [10] is 0.01.
Consider `C[C@@H](O)[C@H]1C(=O)N2C(C(=O)O)=C(SC(=S)N3CCCC(O)CC3)[C@H](C)[C@H]12` (some centres not stated), for which, in the data set on Staphylococcus aureus [1], the ED50 came to 2.88 mg/kg. Also, the MIC in the data set on Enterococcus faecalis is 3.13 mg/L (≈ 7.81 µM); with Staphylococcus aureus [3], 3.13 mg/L (≈ 7.81 µM); against Staphylococcus aureus [4] it was 3.13 mg/L (≈ 7.81 µM); against Escherichia coli, 12.5 mg/L (≈ 31.2 µM); in the data set on Staphylococcus aureus [13], 3.55 mg/L (≈ 8.86 µM); in the data set on Staphylococcus aureus [8], 0.012 mg/L (≈ 0.03 µM). Moreover, the MIC in data set [9] is 3.13 mg/L (≈ 7.81 µM); against Pseudomonas aeruginosa, greater than 25 mg/L. This compound displayed a PPB in the data set filed under Mus musculus of 92%. The DHP-I susceptibility in data set [5] and in data set [6] was 2.88 throughout. The same compound came in with an IC50 in data set [12] of 1.9 mg/L (≈ 4.74 µM). This compound also yielded an Epileptogenicity with Rattus norvegicus [14] of 0. Besides, the fraction unbound at 10 ug/mL in data set [10] was 0.15.
